The values below come from patent US10112954B2, “Bicyclic heteroaryl derivatives having inhibitory activity for protein kinase” (HANMI PHARM. CO., LTD., priority 2010, dated 2018).

As usually defined, the IC50 is the concentration that inhibits the measured activity by half.

Assay [1] deals with T1, FGFR1 (Homo sapiens, UniProt P11362).
T1 construct: purchased Upstate Company
Kind of assay: Inhibition of FGFR1 kinase (fluorescence polarization kinase assay). It is filed as biochemical. Particulars: Table 2, class symbols; read-out: FGFR1 IC50. How it is done:
(§1) Inhibition activities of kinases of the inventive compounds (test compounds) prepared in the Examples were assessed and represented as IC50 values.
(§2) Kinases used in Test Examples 1 to 3 were purchased from Upstate Company.
(§3) 100 mM HEPES (pH 7.4), 25 mM MgCl2, 10 mM MnCl2 and 250 μM Na3VO4 were mixed to prepare a kinase buffer. Each of kinases to be measured was diluted to a concentration of 25˜300 ng per one reaction according to its activity with the kinase buffer. Also, each of the test compounds was serially diluted to a concentration starting from 100 nM up to 0.1 nM with the kinase buffer. 10 μl of the serially diluted solution of each of the test compounds and 10 μl of the diluted kinase were added to each well of a 96-well microplate, and the plate was incubated at room temperature for 10 mins. 10 μl of a substrate and 10 μl of ATP were successively added thereto to initiate a kinase reaction, and the resulting mixture was incubated at room temperature for 1 hour. The ATP was used in a form of a solution diluted to a concentration determined according to a kinase's Km value with distilled water. 10˜100 ng/mL poly(Glu, Tyr) 4:1 (Sigma) was used as the substrate. 10 μl of 6 mM EDTA was added to each well and stirred for 5 mins to terminate the kinase reaction. For a measurement of phosphorylation degree, 50 μl of a solution containing anti-phosphotyrosine antibody and fluorescein-labeled phosphopeptide was added to the reaction mixture, followed by incubating for 30 mins. The FP (fluorescence polarization) value of each well was determined with a Victor™ D fluorescence meter (Perkin Elmer Lifesciences).
(§4) IC50, the concentration at which 50% inhibition occurs, was evaluated based on the difference between the final concentration of the test cells and the initial concentration of the cells incubated in a well not-treated with the test compound which was regarded as 100%. IC50 values of the test compounds on the FGFR kinase were shown in Table 2, and those of the test compound obtained in Example 177 on various kinases, in Table 3.
(Fluorescence polarisation rises when a labelled molecule tumbles more slowly, as on binding a larger partner.)

The target of assay [2] is T2, FGFR3 (Homo sapiens, UniProt P22607).
T2 construct: purchased Upstate Company
T2 sequence (P22607 23-806, species assumed): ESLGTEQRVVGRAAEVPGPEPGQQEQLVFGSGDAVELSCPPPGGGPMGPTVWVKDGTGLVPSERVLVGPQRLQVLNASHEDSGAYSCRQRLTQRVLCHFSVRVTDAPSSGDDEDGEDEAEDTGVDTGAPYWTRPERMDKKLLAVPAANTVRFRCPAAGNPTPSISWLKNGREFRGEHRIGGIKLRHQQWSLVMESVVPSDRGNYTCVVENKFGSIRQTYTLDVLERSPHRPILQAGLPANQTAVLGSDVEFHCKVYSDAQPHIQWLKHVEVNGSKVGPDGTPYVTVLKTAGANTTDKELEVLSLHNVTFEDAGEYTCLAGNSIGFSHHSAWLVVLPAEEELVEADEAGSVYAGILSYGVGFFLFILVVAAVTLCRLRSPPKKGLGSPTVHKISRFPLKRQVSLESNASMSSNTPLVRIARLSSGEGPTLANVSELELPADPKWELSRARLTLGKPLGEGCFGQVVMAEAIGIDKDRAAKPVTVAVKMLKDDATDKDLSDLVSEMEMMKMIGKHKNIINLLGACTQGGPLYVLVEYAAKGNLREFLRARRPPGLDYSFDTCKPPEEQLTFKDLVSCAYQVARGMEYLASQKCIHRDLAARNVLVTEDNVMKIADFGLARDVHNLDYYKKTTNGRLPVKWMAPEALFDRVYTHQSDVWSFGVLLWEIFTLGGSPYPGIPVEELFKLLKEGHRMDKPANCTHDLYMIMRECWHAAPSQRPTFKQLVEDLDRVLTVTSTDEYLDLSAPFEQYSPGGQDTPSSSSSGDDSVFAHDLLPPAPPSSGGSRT
Description: Inhibition of FGFR3 kinase (fluorescence polarization kinase assay). Type of assay: biochemical. The following applies: Table 2, class symbols; read-out: FGFR3 IC50. How it is done:
as §1, §2, §3, §4

T1 sequence (P11362 22-822, species assumed): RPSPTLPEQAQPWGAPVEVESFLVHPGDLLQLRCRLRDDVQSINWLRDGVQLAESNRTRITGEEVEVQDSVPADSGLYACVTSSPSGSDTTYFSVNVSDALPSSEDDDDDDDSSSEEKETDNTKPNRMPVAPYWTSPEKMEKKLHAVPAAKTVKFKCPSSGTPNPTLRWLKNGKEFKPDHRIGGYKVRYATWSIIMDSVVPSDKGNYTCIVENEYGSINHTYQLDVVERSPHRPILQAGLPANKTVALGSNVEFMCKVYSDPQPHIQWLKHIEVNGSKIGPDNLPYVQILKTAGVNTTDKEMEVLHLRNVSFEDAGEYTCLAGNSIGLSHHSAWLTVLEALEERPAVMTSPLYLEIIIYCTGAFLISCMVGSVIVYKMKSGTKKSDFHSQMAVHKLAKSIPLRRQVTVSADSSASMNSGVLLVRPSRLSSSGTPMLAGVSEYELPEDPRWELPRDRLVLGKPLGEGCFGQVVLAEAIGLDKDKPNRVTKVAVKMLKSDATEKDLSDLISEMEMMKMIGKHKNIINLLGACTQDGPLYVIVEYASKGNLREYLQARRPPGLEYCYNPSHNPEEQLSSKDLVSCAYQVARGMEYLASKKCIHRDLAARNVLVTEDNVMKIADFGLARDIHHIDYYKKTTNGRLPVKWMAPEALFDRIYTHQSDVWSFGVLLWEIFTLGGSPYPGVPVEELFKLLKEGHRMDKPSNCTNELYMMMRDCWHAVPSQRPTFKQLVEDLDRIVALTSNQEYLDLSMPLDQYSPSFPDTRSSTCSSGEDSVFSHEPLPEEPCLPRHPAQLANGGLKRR

In the case of `COc1cc(OC)c(Cl)c(NC(=O)c2csc3c(Nc4ccc(N5CCC(N6CCCC6)CC5)cc4)ncnc23)c1Cl` [Example 202, N-(2,6-dichloro-3,5-dimethoxyphenyl)-4-(4-(4-(pyrrolidin-1-yl)piperidin-1-yl)phenylamino) thieno[3,2-d]pyrimidine-7-carboxamide], the figures for the IC50 in assay [1] and in assay [2] were 100 to 500 nM and 1 to 100 nM, respectively.
For `CCOC(=O)NC(=S)Nc1ncnc2c(C(=O)Nc3c(Cl)c(OC)cc(OC)c3Cl)csc12` [Example 216, N-(2,6-dichloro-3,5-dimethoxyphenyl)-4-(3-(ethoxycarbonyl)thioureido)thieno[3,2-d]pyrimidine-7-carboxamide], in that order: 100 to 500 nM and 500 to 1000 nM.
As for `COc1cc(O)c(Cl)c(NC(=O)c2csc3c(N)ncnc23)c1Cl` [Example 217, 4-Amino-N-(2,6-dichloro-3-hydroxy-5-methoxyphenyl)thieno[3,2-d]pyrimidine-7-carboxamide], the IC50 in assay [1] was 1 to 100 nM; in assay [2], 100 to 500 nM.
In the case of `COc1cc(OC)c(Cl)c(NC(=O)c2csc3c(Nc4nc5ccc(C)cc5s4)ncnc23)c1Cl` [Example 225, N-(2,6-dichloro-3,5-dimethoxyphenyl)-4-(6-methylbenzo[d]thiazol-2-ylamino)thieno[3,2-d]pyrimidine-7-carboxamide], the IC50 in assay [1] and in assay [2] was 500 to 1000 nM in each case.
For `COc1cc(OC)c(Cl)c(NC(=O)c2csc3c(Nc4ccc5cn[nH]c5c4)ncnc23)c1Cl` [Example 229, 4-(1H-indazol-6-ylamino)-N-(2,6-dichloro-3,5-dimethoxyphenyl) thieno[3,2-d]pyrimidine-7-carboxamide], the figures for the IC50 in assay [1] and in assay [2] were 1 to 100 nM and 500 to 1000 nM, respectively.
On to `COc1cc(OC)c(Cl)c(NC(=O)c2csc3c(Nc4ccc(CN5CCOCC5)cn4)ncnc23)c1Cl` [Example 247, N-(2,6-dichloro-3,5-dimethoxyphenyl)-4-(5-(morpholinomethyl)pyridin-2-ylamino)thieno[3,2-d]pyrimidine-7-carboxamide], for which the IC50 in assay [1] and in assay [2] was 1 to 100 nM each time.
As for `COc1cc(OC)c(Cl)c(NC(=O)c2csc3c(Nc4ccc(NC(=O)CN(C)C)cn4)ncnc23)c1Cl` [Example 299, N-(2,6-dichloro-3,5-dimethoxyphenyl)-4-(5-(2-(dimethylamino)acetamido)pyridin-2-ylamino)thieno[3,2-d]pyrimidine-7-carboxamide], the IC50 in assay [1] and in assay [2] was 1 to 100 nM throughout.
Consider `CCOC(=O)CNc1ncnc2c(C(=O)Nc3c(Cl)c(OC)cc(OC)c3Cl)csc12` [Example 302, ethyl 2-(7-(2,6-dichloro-3,5-dimethoxyphenyl-carbamoyl)thieno[3,2-d]pyrimidin-4-ylamino)acetate], for which the IC50 in assay [1] and in assay [2] was 1000 to 5000 nM each time.
For `COc1cc(OC)c(Cl)c(NC(=O)c2csc3c(NCCNc4ccccc4)ncnc23)c1Cl` [Example 304, N-(2,6-dichloro-3,5-dimethoxyphenyl)-4-(2-(phenylamino)ethyl-amino)thieno[3,2-d]pyrimidine-7-carboxamide], the IC50 in assay [1] and in assay [2] was 1000 to 5000 nM each time.
